{"source": "patent US10966990B2", "about": "“Midazolam in flexible bags” (InfoRLife SA, priority 2018, dated 2021)", "key": {"[1]": {"assay": "solubility study of midazolam base in aqueous solution (pH-dependent)", "assay_type": "physicochemical", "conditions": "midazolam 2 mg/mL in a solution of 0.9% NaCl", "description": "The solubility of midazolam is less than 0.1 mg/mL at neutral pH and it increases considerably in acidic media. A solubility study has been performed to evaluate the use of midazolam base in the proposed formulation. Since the solubility of midazolam is pH-dependent, the purpose of this study was to evaluate the pH value at which midazolam becomes soluble in aqueous solution. Midazolam at a concentration of 2 mg/mL is soluble in a solution of 0.9% NaCl when the pH reaches a value of about 3.2 pH. The solubility increases at lower pHs. The desired pH of the formulation is about from about 2.5 to about 3.5, preferably 2.8 to 3.2 and more preferably about pH 3. Sufficient acid is added to the solution to achieve the desired pH. Any pharmaceutically acid may be used. Preferably the acid is a pharmaceutically acceptable mineral acid, most preferably hydrochloric acid. If necessary a pharmaceutically acceptable base may be used to raise the pH if needed. The preferred bases are pharmaceutically acceptable inorganic bases such as sodium hydroxide and potassium hydroxide. Sodium hydroxide is the preferred base."}, "[2]": {"conditions": "cited from earlier work"}, "[3]": {"conditions": "neutral pH; cited from earlier work"}}}
{"smiles": "Cc1ncc2n1-c1ccc(Cl)cc1C(c1ccccc1F)=NC2", "note": "[Midazolam]", "values": [{"measurement": "pH value at which midazolam becomes soluble", "setting": "[1]", "result": "about 3.2 pH"}, {"measurement": "storage of bag", "setting": "[2]; isotonic saline IV bag, room temperature", "result": "can be stored overnight at room temperature"}, {"measurement": "useful life", "setting": "[2]; midazolam in lactate Ringer's solution in IV bag", "result": 4, "unit": "h"}, {"measurement": "solubility of midazolam", "setting": "[3]", "result": "less than 0.1 mg/mL"}]}
